Values quoted from earlier work, collected in patent US20190209596A1, “METHODS OF TREATING DISEASES” (Boehringer Ingelheim International GmbH, priority 2015, published 2019).

Details: metformin on its own, in the diabetic

CN(C)C(=N)N=C(N)N [metformin]
average improvement in the HbA1c value: 1.0-1.5%
